Where a name gives a salt, the structure may show the parent alone. Read-outs that look alike come from different tables or passages of the source.
How the values were obtained:
stomach of the rat = assay: Test for ulcerogenic effect on the stomach of the rat; type: in vivo, rat (Chbb:THOM); conditions: oral, 3 subsequent days
Description: (§1) (1) Test for ulcerogenic effect on the stomach of the rat
(§2) The test was carried out on male and female (1:1) Chbb:THOM-rats with a body weight between 130 to 150 gm at the beginning of the study.
(§3) The test substances (non-steroidal anti-phlogistics or mixtures of these antiphlogistics with pirenzepine dihydrochloride) were administered as triturations in 1% tylose (1 ml/100 gm animal) by way of an esophageal tube once a day on three successive days.
(§4) Four hours after the last administration (i.e. on the 3rd day) the animals were killed by an over-dose of ether. The stomachs wer dissected, cut along the great curvature and washed under flowing water for subsequent macroscopic evaluation.

[1] = test system: kaolin-induced edema of the rat's hind paw; assay: Test for antiphlogistic effect against the kaolin-induced edema of the rat's hind paw; type: in vivo, rat (Chbb:THOM); conditions: oral, rat; for ED35: Rattus norvegicus, po, 5 h, kaolin edema, read-out: ED35; for Thickness of the paw (mean): 5 h after kaolin
Description: (2) Test for antiphlogistic effect against the kaolin-induced edema of the rat's hind paw (tested substances: A, B, C and D)
The test was carried out on male Chbb:THOM-rats with a body weight between 125 and 150 gm. According to HILLEBRECHT [Arzneimittel-Forsch. 4, 607 (1954)], a subplantary injection of 0.05 ml of a 10% suspension of kaolin in an aqueous 0.85% sodium chloride solution in the hind paw was used for the provocation of the kaolin edema. The other hind paw was subplantarily injected with the same volume of an aqueous 0.85% sodium chloride solution.
The measurement of the thickness of the paws was carried out using the technique of DOEPFNER and […] [Int. Arch. Allergy appl. Immunol. 12, 89 (1958)] by way of the determination of the maximum sagittal diameter, using a measuring device with constant pressure, before and 5 hours after the provocation of the edema.
The test substances (the non-steroidal antiphlogistics or the mixture of non-steroidal antiphlogistics with pirenzepine dihydrochloride) were administered 30 minutes before provocation of the edema as a trituration in 1% tylose (1 ml/[…]) by way of an esophageal tube.
The diameter of the paw measured before the beginning of the test as well as the increase in diameter of the other paw caused by injection were subtracted from the diameter of the kaolin-treated paw, and this difference, being the real swelling value, was used for the further calculations.
(§5) From the swelling values obtained by administration of different dosages of non-steroidal antiphlogistics with or without the addition of pirenzepine dihydrochloride, using a linear regression analysis according to LINDNER [Statistische Methoden, 4th Ed., pages 148-162, Birkhauser, Basel, Switzerland (1964)], the ED35 values of the antiphlogistics were calculated with the confidence limits according to FIELLER [Quart. J. Pharm. Pharmacol. 17, 117 (1944)], the ED35 being the dosage which reduces the swelling of the paws by 35% in comparison to the control animals.

[2] = Test for ulcerogenic effect on the stomach of the rat; type: in vivo, rat (Chbb:THOM); conditions: in vivo, po
Description: as §1, §2, §3, §4

[3] = test system: carrageenin-induced edema of the hind paw of the rat; assay: Test for antiphlogistic effect against the carrageenin-induced edema of the hind paw of the rat; type: in vivo; conditions: rat; for ED35: Rattus norvegicus, po, 3 h, carrageenin edema; for Thickness of the paw (mean): 3 h after carrageenin
Description: The test was carried out in analogy to the above test for the kaolin-induced edema. However, the edema was induced according to the method of WINTER et al. [J. Pharmacol. 141, 369 (1963)] by subplantary injection of 0.05 ml of a 1% solution of carrageenin in an aqueous 0.85% solution of sodium chloride. […] Three hours after the provocation of the edema the measurement which provided the basis for the evaluation of an anti-exudative effect was carried out.
as §5

[4] = antiphlogistic 12.5 mgm/kg, without A
[5] = antiphlogistic 25 mgm/kg + A 100 mgm/kg
[6] = antiphlogistic 25 mgm/kg, without A
[7] = antiphlogistic 50 mgm/kg + A 100 mgm/kg
[8] = antiphlogistic 50 mgm/kg, without A
[9] = antiphlogistic 100 mgm/kg, without A

Structure (SMILES): O=C(O)C=CC(O)c1ccc(-c2ccccc2F)cc1 (centres unmarked) [C, 4-[4-(2'-fluoro-biphenylyl)]-4-hydroxy-crotonic acid morpholine salt]
- Ratio of animals with ulcers (stomach of the rat; antiphlogistic 52 mgm/kg, without A): 5/12
- Ratio of animals with ulcers (stomach of the rat; antiphlogistic 62 mgm/kg + A 50 mgm/kg): 4/15
- Ratio of animals with ulcers (stomach of the rat; antiphlogistic 62 mgm/kg, without A): 8/12
- Ratio of animals with ulcers (stomach of the rat; antiphlogistic 74 mgm/kg + A 50 mgm/kg): 8/17
- Ratio of animals with ulcers (stomach of the rat; antiphlogistic 74 mgm/kg + A 100 mgm/kg): 0/15
- Ratio of animals with ulcers (stomach of the rat; antiphlogistic 74 mgm/kg, without A): 10/12
- Ratio of animals with ulcers (stomach of the rat; antiphlogistic 88 mgm/kg + A 50 mgm/kg): 9/17
- Ratio of animals with ulcers (stomach of the rat; antiphlogistic 88 mgm/kg + A 100 mgm/kg): 4/15
- Ratio of animals with ulcers (stomach of the rat; antiphlogistic 106 mgm/kg + A 50 mgm/kg): 11/17
- Ratio of animals with ulcers (stomach of the rat; antiphlogistic 106 mgm/kg + A 100 mgm/kg): 3/15
- Ratio of animals with ulcers (stomach of the rat; antiphlogistic 127 mgm/kg + A 100 mgm/kg): 7/15
- Ratio of animals with ulcers (stomach of the rat; antiphlogistic 153 mgm/kg + A 100 mgm/kg): 8/15
- ED35 ([1]; with A 100 mgm/kg): 17.6 mg/kg
- ED35 ([1]; without A): 15.3 mg/kg
- Thickness of the paw (mean) ([1]; antiphlogistic 6.25 mgm/kg + A 100 mgm/kg): 215.6 10^-2 mm
- Thickness of the paw (mean) ([1]; antiphlogistic 6.25 mgm/kg, without A): 203.9 10^-2 mm
- Thickness of the paw (mean) ([1]; antiphlogistic 12.25 mgm/kg + A 100 mgm/kg): 187.0 10^-2 mm
- Thickness of the paw (mean) [1, 4]: 179.5 10^-2 mm
- Thickness of the paw (mean) [1, 5]: 166.0 10^-2 mm
- Thickness of the paw (mean) [1, 6]: 164.3 10^-2 mm
- Thickness of the paw (mean) [1, 7]: 149.3 10^-2 mm
- Thickness of the paw (mean) [1, 8]: 138.0 10^-2 mm
- Thickness of the paw (mean) [1, 9]: 93.8 10^-2 mm

Structure (SMILES): O=C([O-])Cc1ccccc1Nc1c(Cl)cccc1Cl.[Na+] [E, sodium [o-(2,6-dichloro-anilino)-phenyl]acetate]
- TD50 ([2]; with A 200 mgm/kg, oral, 3 subsequent days, read-out: ED50-ulcer): 4.05 mg/kg
- TD50 ([2]; with A 400 mgm/kg, oral, 3 subsequent days, read-out: ED50-ulcer): 5.63 mg/kg
- TD50 ([2]; without A, oral, 3 subsequent days, read-out: ED50-ulcer): 2.95 mg/kg
- Ratio of animals with ulcers (stomach of the rat; antiphlogistic 2 mgm/kg + A 200 mgm/kg): 3/20
- Ratio of animals with ulcers (stomach of the rat; antiphlogistic 2 mgm/kg + A 400 mgm/kg): 1/20
- Ratio of animals with ulcers (stomach of the rat; antiphlogistic 2 mgm/kg, without A): 5/20
- Ratio of animals with ulcers (stomach of the rat; antiphlogistic 4 mgm/kg + A 200 mgm/kg): 9/20
- Ratio of animals with ulcers (stomach of the rat; antiphlogistic 4 mgm/kg + A 400 mgm/kg): 7/20
- Ratio of animals with ulcers (stomach of the rat; antiphlogistic 4 mgm/kg, without A): 14/20
- Ratio of animals with ulcers (stomach of the rat; antiphlogistic 8 mgm/kg + A 200 mgm/kg): 17/19
- Ratio of animals with ulcers (stomach of the rat; antiphlogistic 8 mgm/kg + A 400 mgm/kg): 13/20
- Ratio of animals with ulcers (stomach of the rat; antiphlogistic 8 mgm/kg, without A): 19/20
- Ratio of animals with ulcers (stomach of the rat; antiphlogistic 16 mgm/kg + A 200 mgm/kg): 20/20
- Ratio of animals with ulcers (stomach of the rat; antiphlogistic 16 mgm/kg + A 400 mgm/kg): 19/20
- ED35 ([3]; with A 400 mgm/kg): 4.3 mg/kg
- ED35 ([3]; without A): 5 mg/kg
- Thickness of the paw (mean) ([3]; antiphlogistic 1.5 mgm/kg + A 400 mgm/kg, oral): 209.5 10^-2 mm
- Thickness of the paw (mean) ([3]; antiphlogistic 1.5 mgm/kg, without A, oral): 209.5 10^-2 mm
- Thickness of the paw (mean) ([3]; antiphlogistic 3.0 mgm/kg + A 400 mgm/kg, oral): 181.5 10^-2 mm
- Thickness of the paw (mean) ([3]; antiphlogistic 3 mgm/kg, without A, oral): 188.5 10^-2 mm
- Thickness of the paw (mean) ([3]; antiphlogistic 6.0 mgm/kg + A 400 mgm/kg, oral): 162.5 10^-2 mm
- Thickness of the paw (mean) ([3]; antiphlogistic 6 mgm/kg, without A, oral): 170.0 10^-2 mm
- Thickness of the paw (mean) ([3]; antiphlogistic 12.0 mgm/kg + A 400 mgm/kg, oral): 148.5 10^-2 mm
- Thickness of the paw (mean) ([3]; antiphlogistic 12 mgm/kg, without A, oral): 154.0 10^-2 mm

Structure (SMILES): COc1ccc2cc([C@H](C)C(=O)O)ccc2c1 [F, d-2-(6-methoxy-2-naphthyl)-propionic acid]
- ED35 ([3]; with A 400 mgm/kg, oral, read-out: ED35): 3 mg/kg
- ED35 ([3]; without A, oral, read-out: ED35): 2.8 mg/kg
- Thickness of the paw (mean) ([3]; antiphlogistic 2 mgm/kg + A 400 mgm/kg, oral): 192.2 10^-2 mm
- Thickness of the paw (mean) ([3]; antiphlogistic 2 mgm/kg, without A, oral): 188.5 10^-2 mm
- Thickness of the paw (mean) ([3]; antiphlogistic 4 mgm/kg + A 400 mgm/kg, oral): 168.5 10^-2 mm
- Thickness of the paw (mean) ([3]; antiphlogistic 4 mgm/kg, without A, oral): 157.5 10^-2 mm
- Thickness of the paw (mean) ([3]; antiphlogistic 8 mgm/kg + A 400 mgm/kg, oral): 133.3 10^-2 mm
- Thickness of the paw (mean) ([3]; antiphlogistic 8 mgm/kg, without A, oral): 118.0 10^-2 mm

Structure (SMILES): CC(C)Cc1ccc(C(C)C(=O)O)cc1 (centres unmarked) [H, 2-(4-isobutylphenyl)-propionic acid]
- TD50 ([2]; ED50-ulcer): 31 mg/kg
- Ratio of animals with ulcers (stomach of the rat; [4]): 0/20
- Ratio of animals with ulcers (stomach of the rat; [5]): 6/20
- Ratio of animals with ulcers (stomach of the rat; antiphlogistic 25 mgm/kg + A 400 mgm/kg): 1/20
- Ratio of animals with ulcers (stomach of the rat; [6]): 8/20
- Ratio of animals with ulcers (stomach of the rat; [7]): 11/20
- Ratio of animals with ulcers (stomach of the rat; antiphlogistic 50 mgm/kg + A 400 mgm/kg): 11/20
- Ratio of animals with ulcers (stomach of the rat; [8]): 15/20
- Ratio of animals with ulcers (stomach of the rat; antiphlogistic 100 mgm/kg + A 100 mgm/kg): 18/20
- Ratio of animals with ulcers (stomach of the rat; antiphlogistic 100 mgm/kg + A 400 mgm/kg): 16/20
- Ratio of animals with ulcers (stomach of the rat; [9]): 19/20
- Ratio of animals with ulcers (stomach of the rat; antiphlogistic 200 mgm/kg + A 100 mgm/kg): 20/20
- Ratio of animals with ulcers (stomach of the rat; antiphlogistic 200 mgm/kg + A 400 mgm/kg): 19/20
- Ratio of animals with ulcers (stomach of the rat; antiphlogistic 200 mgm/kg, without A): 20/20
- ED35 ([3]; with A 400 mgm/kg): 34.2 mg/kg
- ED35 ([3]; without A): 39.6 mg/kg
- Thickness of the paw (mean) ([3]; antiphlogistic 20 mgm/kg + A 400 mgm/kg, oral): 204.0 10^-2 mm
- Thickness of the paw (mean) ([3]; antiphlogistic 20 mgm/kg, without A, oral): 210.0 10^-2 mm
- Thickness of the paw (mean) ([3]; antiphlogistic 40 mgm/kg + A 400 mgm/kg, oral): 170.0 10^-2 mm
- Thickness of the paw (mean) ([3]; antiphlogistic 40 mgm/kg, without A, oral): 167.0 10^-2 mm
- Thickness of the paw (mean) ([3]; antiphlogistic 80 mgm/kg + A 400 mgm/kg, oral): 131.7 10^-2 mm
- Thickness of the paw (mean) ([3]; antiphlogistic 80 mgm/kg, without A, oral): 141.5 10^-2 mm

Reference: patent US4292319A, “Antiphlogistic pharmaceutical compositions and method of use” (Boehringer Ingelheim GmbH, priority 1977, dated 1981)
